Laboratory results published in ChEMBL document CHEMBL1129887, “Dicarboxylic acid inhibitors of phospholipase A2” (Bioorg Med Chem Lett, 1997).

Tests used:
[1] = target: T1, Phospholipase A2, membrane associated (Homo sapiens, UniProt P14555); assay: Compound was measured for the inhibition of human platelet PLA2 (HP-PLA2)
T1 sequence (P14555 whole entry): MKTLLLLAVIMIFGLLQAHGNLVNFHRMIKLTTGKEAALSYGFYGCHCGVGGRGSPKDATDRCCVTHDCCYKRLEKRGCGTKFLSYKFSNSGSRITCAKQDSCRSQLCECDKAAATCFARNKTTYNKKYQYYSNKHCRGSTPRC

[2] = system: Mus musculus; assay: (§1) Antiinflammatory activity of compound was measured in the phorbol-ester induced mouse chronic ear edema assay; format: functional
[3] = system: Mus musculus; assay: as §1; format: functional; remark: listed apart in the source

IC50 [1] [µM]	SMILES	ED50 [2] [ug ear-1 dose-1]	ED50 [3] [ug ear-1 dose-1]
8	C/C(=C\C(=O)O)C(=CCCc1ccc(C23C[C@H]4C[C@@H](C2)C[C@@H](C3)C4)c(O)c1)c1cccc(C(=O)O)c1		
17	C/C(=C\C(=O)O)C(=Cc1ccc2cc3c(cc2c1)C(C)(C)CCC3(C)C)c1cccc(C(=O)O)c1	9.37	
2	C/C(=C\C(=O)O)C(=CCCc1ccc2cc3c(cc2c1)C(C)(C)CCC3(C)C)c1cccc(C(=O)O)c1	89	
4	C/C(=C\C(N)=O)C(=Cc1ccc2cc3c(cc2c1)C(C)(C)CCC3(C)C)c1cccc(C(N)=O)c1	186	

The next lines start with the molecule.

SMILES	IC50 [1] [µM]	ED50 [2] [ug ear-1 dose-1]	ED50 [3] [ug ear-1 dose-1]
CCCCCCCCCCOc1ccc(C=C(/C(C)=C/C(=O)O)c2cccc(C(=O)O)c2)cc1	7		
C/C(=C\C(=O)O)C(=Cc1ccc2cc(OCc3ccccc3)c(OCc3ccccc3)cc2c1)c1cccc(C(=O)O)c1		208	
CCCCCCCCCCOc1ccc2cc(C=C(/C(C)=C/C(=O)O)c3cccc(C(=O)O)c3)ccc2c1	14	31	
C/C(=C\C(=O)O)C(=Cc1ccc2cc(OCCCc3ccccc3)ccc2c1)c1cccc(C(=O)O)c1	17	30	90
CC1=C(/C=C/C(C)=C/C=C(/C(C)=C/C(=O)O)c2cccc(C(=O)O)c2)C(C)(C)CCC1		160	
